From patent US9828386B2 (priority 2013, dated 2017)

Key:
Assay in all cases: cells
Type in all cases: cell-based
A549 cell line = details: A549 cells, MTT, 48 h cultivation; read-out: IC50 (μM) A549
Experimental: (§1) Test of compounds of embodiment of the present invention on inhibiting tumor cell activity
(§2) 3, cell lines: A549, BGC823, Hela cell line and normal human hepatocytes which are available from Wu Han boster Co., Ltd.;
(§3) A549, BGC823, Hela cell line and normal human hepatocytes in logarithmic growth phase are subjected to 1000 rpm centrifugation for 5 min, supernatant is then discarded, moderate medium is suspended, the cell concentration is adjusted to 3.5×10^4/well, the cells were seeded in 96-wells culture plate, and following experimental groups are set:
(§4) a negative control group; 35 test groups with same concentration (ie: groups of Compound (1) to Compound (35)); three control groups: groups of podophyllotoxin, 4′-demethylepipodophyllotoxin and etoposide.
(§5) Taking RPMI1640 containing 10% of calf serum as nutrient solution, 0.10 mL of cells per well is incubated under conditions of 37° C., 5% CO2 and saturated humidity for 24 h to nearly be covered, then the nutrient solution is discarded. […] 100 μl of DMSO is added to each well, then vibrated at 37° C. by shaker table for 30 min, then measuring absorbance (OD) at 492 nm, calculating MTT ratio=OD value of drug group/OD value of the negative control group.

Hela cell line = details: Hela cells, MTT, 48 h cultivation; read-out: IC50 (μM) Hela
Experimental: as §1, §2, §3, §4, §5

BGC823 cell line = details: BGC823 cells, MTT, 48 h cultivation; read-out: IC50 (μM) BGC823
Experimental: as §1, §2, §3, §4, §5

Structure (SMILES) | IC50 (A549 cell line) [µM] | IC50 (Hela cell line) [µM] | IC50 (BGC823 cell line) [µM]
COc1cc(C2c3cc4c(cc3C(Sc3nc(C)cc(C)n3)C3COC(=O)C23)OCO4)cc(OC)c1O (stereo not drawn) [Compound 28, 4-S-(4,6-dimethyl-pyrimidine-2)-4-deoxy-4′-demethylepipodophyllotoxin] | 1.27 ± 1.12 | 5.26 ± 0.62 | 4.29 ± 0.83
COc1cc(C2c3cc4c(cc3C(Sc3nc(NS(=O)(=O)c5ccc(C)cc5)n[nH]3)C3COC(=O)C23)OCO4)cc(OC)c1OC (stereo not drawn) [Compound 15, 4-S-[3-N-(4-methyl-benzenesulfonamide-)-1,2,4-triazole-5-]-4-deoxy-podophyllotoxin] | 2.36 ± 0.23 | 0.6 ± 0.08 | 1.69 ± 0.07
COc1ccc(S(=O)(=O)Nc2n[nH]c(SC3c4cc5c(cc4C(c4cc(OC)c(OC)c(OC)c4)C4C(=O)OCC34)OCO5)n2)cc1 (stereo not drawn) [Compound 16, 4-S-[3-N-(4-methoxy-benzenesulfonamide-)-1,2,4-triazole-5-]-4-deoxy-podophyllotoxin] | 1.24 ± 0.33 | 1.56 ± 0.05 | 0.67 ± 0.05
COc1cc(C2c3cc4c(cc3C(Sc3cccc(C)n3)C3COC(=O)C23)OCO4)cc(OC)c1O (stereo not drawn) [Compound 24, 4-S-(6-methyl-pyridin-2)-4-deoxy-4′-demethylepipodophyllotoxin] | 1.11 ± 0.94 | 7.18 ± 0.07 | 4.01 ± 0.02
COc1ccc(S(=O)(=O)Nc2nc(SC3c4cc5c(cc4C(c4cc(OC)c(O)c(OC)c4)C4C(=O)OCC34)OCO5)n[nH]2)cc1 (stereo not drawn) [Compound 33, 4-S-[3-N-(4-methoxy-benzenesulfonamide-)-1,2,4-triazole-5-]-4-deoxy-4′-demethylepipodophyllotoxin] | 1.37 ± 2.15 | 1.56 ± 0.88 | 1.27 ± 0.53
COc1cc(C2c3cc4c(cc3C(Sc3ccccn3)C3COC(=O)C23)OCO4)cc(OC)c1O (stereo not drawn) [Compound 22, 4-S-(pyridin-2)-4-deoxy-4′-demethylepipodophyllotoxin] | 1.01 ± 0.38 | 2.31 ± 0.31 | 0.27 ± 0.03
COc1cc(C2c3cc4c(cc3C(Sc3nnc(N)s3)C3COC(=O)C23)OCO4)cc(OC)c1OC (stereo not drawn) [Compound 3, 4-S-(2-amino-1,3,4-thiadiazole-5)-4-deoxy-podophyllotoxin] | 1.98 ± 2.54 | 0.06 ± 0.01 | 0.71 ± 0.03
COc1cc(C2c3cc4c(cc3C(Sc3n[nH]c(C)n3)C3COC(=O)C23)OCO4)cc(OC)c1OC (stereo not drawn) [Compound 2, 4-S-(5-methyl-1,2,4-triazole-3)-4-deoxy-podophyllotoxin] | 1.01 ± 0.28 | 0.15 ± 0.03 | 0.27 ± 0.03
COc1cc(C2c3cc4c(cc3C(Sc3nc5ccccc5s3)C3COC(=O)C23)OCO4)cc(OC)c1OC (stereo not drawn) [Compound 12, 4-S-(benzothiazol-2)-4-deoxy-podophyllotoxin] | 3.85 ± 0.47 | 0.6 ± 0.39 | 0.31 ± 0.34
COc1cc(C2c3cc4c(cc3C(Sc3nnc(NS(=O)(=O)c5ccc(C)cc5)s3)C3COC(=O)C23)OCO4)cc(OC)c1OC (stereo not drawn) [Compound 17, 4-S-[2-N-(4-methyl-benzenesulfonamide-)-1,3,4-thiadiazole-5-]-4-deoxy-podophyllotoxin] | 1.12 ± 1.74 | 0.97 ± 0.02 | 1.04 ± 0.13
COc1cc(C2c3cc4c(cc3C(Sc3nnc(C)s3)C3COC(=O)C23)OCO4)cc(OC)c1OC (stereo not drawn) [Compound 4, 4-S-(5-methyl-1,3,4-thiadiazol-2)-4-deoxy-podophyllotoxin] | 4.11 ± 0.93 | 2.18 ± 0.07 | 4.01 ± 0.02
COc1cc(C2c3cc4c(cc3C(Sc3ncccn3)C3COC(=O)C23)OCO4)cc(OC)c1OC (stereo not drawn) [Compound 9, 4-S-(pyrimidine-2)-4-deoxy-podophyllotoxin] | 6.4 ± 0.38 | 3.64 ± 0.46 | 0.71 ± 0.14
COc1cc(C2c3cc4c(cc3C(Sc3nnc(C)s3)C3COC(=O)C23)OCO4)cc(OC)c1O (stereo not drawn) [Compound 21, 4-S-(5-methyl-1,3,4-thiadiazol-2)-4-deoxy-4′-demethylepipodophyllotoxin] | 5.76 ± 0.18 | 0.52 | 0.83 ± 0.14
COc1cc(C2c3cc4c(cc3C(Sc3nnc(NS(=O)(=O)c5ccc(C)cc5)s3)C3COC(=O)C23)OCO4)cc(OC)c1O (stereo not drawn) [Compound 34, 4-S-[2-N-(4-methyl-benzenesulfonamide-)-1,3,4-thiadiazole-5-]-4-deoxy-4′-demethylepipodophyllotoxin] | 5.89 ± 0.74 | 2.11 ± 0.34 | 0.85 ± 0.43
COc1cc(C2c3cc4c(cc3C(Sc3nccc(N)n3)C3COC(=O)C23)OCO4)cc(OC)c1O (stereo not drawn) [Compound 27, 4-S-(4-amino-pyrimidine-2)-4-deoxy-4′-demethylepipodophyllotoxin] | 3.27 ± 0.17 | 1.33 ± 0.39 | 0.22 ± 0.03
COc1cc(C2c3cc4c(cc3C(Sc3n[nH]c(NS(=O)(=O)c5ccc(C)cc5)n3)C3COC(=O)C23)OCO4)cc(OC)c1O (stereo not drawn) [Compound 32, 4-S-[3-N-(4-methyl-benzenesulfonamide-)-1,2,4-triazole-5-]-4-deoxy-4′-demethylepipodophyllotoxin] | 1.67 ± 0.28 | 0.53 ± 0.17 | 0.67 ± 0.22
COc1cc(C2c3cc4c(cc3C(Sc3ncccc3C(=O)O)C3COC(=O)C23)OCO4)cc(OC)c1O (stereo not drawn) [Compound 23, 4-S-(3-picolinate-2)-deoxy-4′-demethylepipodophyllotoxin] | 2.03 ± 0.45 | 1.22 ± 0.25 | 6.68 ± 0.04
COc1cc(C2c3cc4c(cc3C(Sc3cccc(C)n3)C3COC(=O)C23)OCO4)cc(OC)c1OC (stereo not drawn) [Compound 7, 4-S-(6-methyl-pyridin-2)-4-deoxy-podophyllotoxin] | 1.12 ± 0.28 | 0.9 ± 0.05 | 3.51 ± 0.14
COc1cc(C2c3cc4c(cc3C(Sc3nc5ccccc5s3)C3COC(=O)C23)OCO4)cc(OC)c1O (stereo not drawn) [Compound 29, 4-S-(benzothiazol-2)-4-deoxy-4′-demethylepipodophyllotoxin] | 0.85 ± 0.93 | 4.57 ± 0.16 | 1.37 ± 0.43
COc1cc(C2c3cc4c(cc3C(Sc3nc5ccccc5[nH]3)C3COC(=O)C23)OCO4)cc(OC)c1O (stereo not drawn) [Compound 30, 4-S-(benzimidazole-2)-4-deoxy-4′-demethylepipodophyllotoxin] | 1.24 ± 0.27 | 0.51 ± 0.13 | 0.31 ± 0.16
COc1cc(C2c3cc4c(cc3C(O)C3COC(=O)C23)OCO4)cc(OC)c1O (stereo not drawn) [4′-demethylepipodophyllotoxins, 4′-demethylepipodophyllotoxin, reference compound] | 52.9 ± 0.85 | 49.32 ± 0.38 | 63.09 ± 0.49
COc1cc(C2c3cc4c(cc3C(Sc3ncccn3)C3COC(=O)C23)OCO4)cc(OC)c1O (stereo not drawn) [Compound 26, 4-S-(pyrimidine-2)-4-deoxy-4′-demethylepipodophyllotoxin] | 4.28 ± 0.11 | 0.25 ± 0.32 | 0.51 ± 0.53
COc1cc(C2c3cc4c(cc3C(Sc3nc5ccccc5o3)C3COC(=O)C23)OCO4)cc(OC)c1O (stereo not drawn) [Compound 31, 4-S-(benzoxazole-2)-4-deoxy-4′-demethylepipodophyllotoxin] | 1.46 ± 0.89 | 0.13 ± 0.01 | 1.36 ± 0.2
